Measurements: patent US8378114B2, “N-2-(hetero)arylethylcarboxamide derivative, and pest-controlling agent comprising the same” (Nihon Nohyaku Co., Ltd., priority 2006, dated 2013)

Experiments:
[1] = tested on: southern root-knot nematode (Meloidogyne incognita); assay: Test on the controlling efficacy against southern root-knot nematode; type: in vivo; parameters: key: A: No root knot.; B: Apparently smaller number of root knots than in non-treated section were present.; C: Root knots in the number equivalent to or higher than in non-treated section were present; conditions: melon nursery plant, plant foot irrigation, 500 ppm, 8 days after inoculation
Protocol: An emulsion prepared by diluting an emulsifiable concentrate of the compound of the present invention, which was prepared in accordance with Formulation Example 1, to 500 ppm was irrigated to the plant foot of a pot-cultivated nursery plant raised from the seed of melon. One day after the irrigation, an aqueous suspension (about 500 nematodes/ml) of southern root-knot nematode was inoculated (soil irrigation) to a treated section and a non-treated section, and the pot was placed in a greenhouse at 25° C. Eight days after the inoculation, the root was washed with water, the number of root knots was counted, and the effect was assessed according to the following criteria of judgment. • Criteria of Judgment • A: No root knot. • B: Apparently smaller number of root knots than in non-treated section were present. • C: Root knots in the number equivalent to or higher than in non-treated section were present.

[2] = tested on: causal fungus of apple tree scab (Venturia inaequalis); assay: Test on the controlling efficacy against apple tree scab; type: in vivo; conditions: apple seedling, foliar application, 4-fold concentration 200 ppm, 14 days after inoculation
Excerpt: A seedling of an apple tree (the variety: Ohrin) grown in a pot was subjected to foliar application with a diluted emulsion of the emulsifiable concentrate of the compound of the present invention prepared in accordance with Formulation Example 1, which diluted emulsion was produced by diluting the concentrate with water to the specifically determined volume. On the following day after the application, the seedling was inoculated by spraying with a spore suspension of the causal fungus of apple tree scab (Venturia inaequalis) as obtained by culture on the PSA medium and maintained at 20° C. under humid conditions. Fourteen days after the inoculation, the protective value (%) was determined in accordance with the equation (1), and the controlling efficacy was assessed according the below-described criteria of judgment. [formula]

Row | SMILES | effect on number of root knots, criteria of judgment [1] | controlling efficacy, criteria of judgment (protective value) [2]
1 | O=C(NCC1(c2ccc(Cl)cc2Cl)CC1)c1ccccc1C(F)(F)F [1-34] | B | –
2 | Cc1nccnc1C(=O)NCCc1ccc(-c2ccc(OC(F)(F)F)cc2)cc1 [3″-48] | B | –
3 | CC(Cc1ccc(Cl)cc1Cl)NC(=O)c1nccnc1Cl (stereo not drawn) [3′-44] | B | –
4 | O=C(NCCc1cccc(C(F)(F)F)c1)c1c(Cl)cccc1Cl [comparison compound A, 2,6-dichloro-N-[2-{3-(trifluoromethyl)phenyl}ethyl]benzamide] | – | 0 (Less than 9% in protective value)
5 | O=C(NCC1(c2ccc(Cl)cc2Cl)CC1)c1nccnc1Cl [3′-43] | B | –
6 | O=C(NCCc1ccc(Cl)cc1Cl)c1ccccc1C(F)(F)F [1-16] | B | –
